Where “and” joins values, the source holds several entries; their conditions need not be identical. Equal values may be shown once.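 Briefly, cells in 96-well plates were exposed to five compound concentrations for 48 h, and endpoints were estimated by linear interpolation. Abbreviation: GI50, concentration required for 50% inhibition of growth.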 Calls of active or inactive are those of the source. Rule as the data show it: active = GI50 up to about 1.1 µM and inactive = higher.
Tests used:
Assay in all cases: NCI anticancer screen, dose series, 48 h
786-0 = tested on: 786-0
ACHN = tested on: ACHN
IGROV-1 = tested on: IGROV-1
LOX IMVI = tested on: LOX IMVI
M14 = tested on: M14
Malme-3M = tested on: Malme-3M
NCI-H226 = tested on: NCI-H226
NCI-H522 = tested on: NCI-H522
SF-268 = tested on: SF-268
SF-295 = tested on: SF-295
SK-MEL-2 = tested on: SK-MEL-2
SK-MEL-5 = tested on: SK-MEL-5
TK-10 = tested on: TK-10
UACC-62 = tested on: UACC-62
CCRF-CEM = tested on: CCRF-CEM
HL-60 = tested on: HL-60

Measured: GI50

CC1=NN(C(=O)CC(=O)Nc2cccc(Cl)c2)C(=O)C1/N=N/c1ccc(S(N)(=O)=O)cc1 (stereo unspecified)
inactive: 786-0 > 100 µM | ACHN > 100 µM | IGROV-1 > 100 µM | LOX IMVI > 100 µM | M14 > 100 µM | Malme-3M > 100 µM | NCI-H226 > 100 µM | NCI-H522 > 100 µM | SF-268 > 100 µM | SF-295 > 100 µM | SK-MEL-2 > 100 µM | SK-MEL-5 > 100 µM | TK-10 > 100 µM | UACC-62 > 100 µM

C[Si](C)(C)C#C[I+]c1ccccc1
inactive: 786-0 45.6 µM | ACHN 41.8 µM | CCRF-CEM 15.1 µM | HL-60 22.5 µM | IGROV-1 92 µM | LOX IMVI 19.1 µM | M14 23.5 µM | Malme-3M 41 µM | NCI-H226 > 100 µM | NCI-H522 9.4 µM | SF-268 45.9 µM | SF-295 > 100 µM | SK-MEL-2 > 100 µM | SK-MEL-5 45.9 µM | TK-10 > 100 µM | UACC-62 33.2 µM

O/N=C1/C(=C/c2ccc(Cl)cc2)CCCC1C(NO)c1ccc(Cl)cc1 (stereo unspecified)
inactive: 786-0 20.7 µM | ACHN 31.5 µM | CCRF-CEM 19.1 µM | HL-60 18.5 µM | IGROV-1 38.2 µM | M14 16.2 µM | Malme-3M 26.7 µM | NCI-H522 20.3 µM | SF-268 15.9 µM | SF-295 18.9 µM | SK-MEL-2 27.1 µM | SK-MEL-5 22.7 µM | TK-10 31.7 µM | UACC-62 29 µM

CCN(CC)CCCn1cnc2ncccc2c1=O
inactive: 786-0 > 100 µM | ACHN > 100 µM | CCRF-CEM > 100 µM | IGROV-1 > 100 µM | LOX IMVI > 100 µM | M14 > 100 µM | Malme-3M > 100 µM | NCI-H226 > 100 µM | NCI-H522 > 100 µM | SF-268 > 100 µM | SF-295 > 100 µM | SK-MEL-2 > 100 µM | SK-MEL-5 > 100 µM | TK-10 > 100 µM | UACC-62 > 100 µM

COc1ccc(/C=C/C(=O)c2c(-c3ccccc3)nn(C)c(=O)c2N2CCOCC2)cc1
inactive: 786-0 > 100 µM | ACHN > 100 µM | CCRF-CEM 63 µM | HL-60 21.4 µM | IGROV-1 > 100 µM | LOX IMVI 68.1 µM | M14 > 100 µM | NCI-H522 > 100 µM | SF-268 > 100 µM | SF-295 > 100 µM | SK-MEL-5 97.9 µM | TK-10 > 100 µM | UACC-62 > 100 µM

CC(C)=CCSC1CC2C(CC1(C)O)C2(C)C (stereo unspecified)
inactive: 786-0 15.9 µM and 13.1 µM | ACHN 17.2 µM and 17.5 µM | IGROV-1 19 µM and 16.9 µM | LOX IMVI 16.2 µM and 15.1 µM | M14 17.7 µM and 14.7 µM | Malme-3M 17.3 µM and 16.4 µM | NCI-H226 13.7 µM and 14.4 µM | SF-268 18.3 µM and 16.3 µM | SF-295 40.7 µM and 20.9 µM | TK-10 18.1 µM and 16.9 µM | UACC-62 15.4 µM and 17.5 µM

COC1C(OC(=S)Nc2ccccc2)c2ccccc2N1C(C)=O (stereo unspecified)
inactive: 786-0 > 100 µM | ACHN 29 µM | CCRF-CEM 64.4 µM | HL-60 72.8 µM | IGROV-1 80.4 µM | M14 89.3 µM | SF-295 28.4 µM | SK-MEL-2 68.9 µM | UACC-62 31.4 µM

COc1ccc2c(c1)[n+]([O-])c(-c1ccccc1Cl)c(N)[n+]2[O-]
inactive: 786-0 > 100 µM | ACHN 86.1 µM | HL-60 70.3 µM | IGROV-1 79.1 µM | M14 73.1 µM | Malme-3M > 100 µM | NCI-H226 > 100 µM | NCI-H522 16.9 µM | SF-268 74.3 µM | SF-295 > 100 µM | SK-MEL-2 > 100 µM | SK-MEL-5 39.8 µM

Nc1c(-c2ccc(Br)cc2)[n+]([O-])c2ccccc2[n+]1[O-]
inactive: 786-0 > 100 µM | ACHN > 100 µM | HL-60 82.4 µM | IGROV-1 > 100 µM | M14 > 100 µM | Malme-3M > 100 µM | NCI-H226 > 100 µM | NCI-H522 52.6 µM | SF-268 > 100 µM | SF-295 > 100 µM | SK-MEL-2 > 100 µM | SK-MEL-5 > 100 µM

OCC1C(/C=C/c2ccoc2)ON2CCCC12 (stereo unspecified)
inactive: 786-0 > 100 µM | ACHN > 100 µM | HL-60 > 100 µM | LOX IMVI > 100 µM | M14 > 100 µM | Malme-3M 20.8 µM | NCI-H226 > 100 µM | NCI-H522 > 100 µM | SF-268 > 100 µM | SF-295 > 100 µM | SK-MEL-2 > 100 µM | TK-10 > 100 µM

Cc1cccc(C)c1NC(=O)C1C(=O)N(c2c(C)cccc2C)C(=O)/C1=N\NC(N)=S (stereo unspecified)
inactive: 786-0 > 100 µM | ACHN > 100 µM | CCRF-CEM > 100 µM | HL-60 > 100 µM | IGROV-1 > 100 µM | M14 > 100 µM | Malme-3M > 100 µM | NCI-H522 > 100 µM | SF-268 > 100 µM | SF-295 > 100 µM | SK-MEL-2 > 100 µM | SK-MEL-5 > 100 µM | TK-10 > 100 µM | UACC-62 > 100 µM

Cc1c(C(=O)/C=C/c2ccc(N(C)C)cc2)c(=O)n(-c2ccccc2)n1C
inactive: 786-0 > 100 µM | ACHN > 100 µM | CCRF-CEM > 100 µM | IGROV-1 > 100 µM | LOX IMVI > 100 µM | Malme-3M > 100 µM | NCI-H226 > 100 µM | NCI-H522 > 100 µM | SF-268 > 100 µM | SF-295 > 100 µM | SK-MEL-2 > 100 µM | TK-10 > 100 µM | UACC-62 > 100 µM

c1ccc(-c2nnc(-c3nn(-c4ccccc4)c4nc5ccccc5nc34)o2)cc1
inactive: 786-0 46.9 µM | ACHN 92.3 µM | CCRF-CEM 18.6 µM | HL-60 20.6 µM | IGROV-1 > 100 µM | LOX IMVI > 100 µM | M14 79.1 µM | Malme-3M 45.5 µM | NCI-H226 18.2 µM | NCI-H522 44.9 µM | SF-268 > 100 µM | SF-295 > 100 µM | SK-MEL-2 > 100 µM | TK-10 > 100 µM | UACC-62 69.2 µM

COC(C(=O)NCCCCNC(=O)C(OC)c1ccccc1)c1ccccc1 (stereo unspecified)
inactive: 786-0 > 100 µM | ACHN > 100 µM | CCRF-CEM > 100 µM | HL-60 > 100 µM | IGROV-1 > 100 µM | LOX IMVI > 100 µM | M14 > 100 µM | Malme-3M > 100 µM | NCI-H226 > 100 µM | NCI-H522 > 100 µM | SF-268 > 100 µM | SF-295 > 100 µM | SK-MEL-2 > 100 µM | SK-MEL-5 > 100 µM | TK-10 > 100 µM | UACC-62 > 100 µM

From ChEMBL document CHEMBL1201862, “PubChem BioAssay data set” (2004)
